# Assay results published in ChEMBL document CHEMBL1141916, “Synthesis and anticonvulsant activity of new 2-substituted-5-(2-benzyloxyphenyl)-1,3,4-oxadiazoles” (Bioorg Med Chem Lett, 2005).
# Key:
# Mus musculus [1] = species: Mus musculus; experiment: Effective dose against pentylenetetrazole (PTZ) induced anticonvulsant activity in mice; assay type: functional
# Mus musculus [2] = species: Mus musculus; experiment: Effective dose against maximal electroshock (MES) induced convulsants in mice; assay type: functional
# [3] = Lethal dose tested against mice; assay type: toxicity; conditions: mouse, in vivo
# Mus musculus [4] = species: Mus musculus; experiment: animal or person
# Mus musculus [5] = species: Mus musculus; experiment: animal or person; remark: listed apart in the source
# Description: Effective dose against pentylenetetrazole (PTZ) induced anticonvulsant activity in presence of flumazenil at 10 mg/kg in mice; Range: 1.1-2
# Mus musculus [6] = experiment: Effective dose against pentylenetetrazole (PTZ) induced anticonvulsant activity in presence of flumazenil at 10 mg/kg in mice; range: 1.5-4.1; assay type: functional
SMILES,ED50 (Mus musculus [1]) [mg/kg],ED50 (Mus musculus [2]) [mg/kg],LD50 [3] [mg/kg],ED50 (Mus musculus [4]) [mg/kg],ED50 (Mus musculus [5]) [mg/kg],ED50 (Mus musculus [6]) [mg/kg]
c1ccc(COc2ccccc2-c2nnc(SCc3ccccc3)o2)cc1,> 100,> 100,> 300,–,–,–
CCSc1nnc(-c2ccccc2OCc2ccccc2)o1,> 100,> 100,> 300,–,–,–
CN1C(=O)CN=C(c2ccccc2)c2cc(Cl)ccc21 [DIAZEPAM],1.4,1.8,–,2.6,2,–
Nc1nnc(-c2ccccc2OCc2ccc(Cl)cc2)o1,> 100,> 100,> 300,–,–,–
Sc1nnc(-c2ccccc2OCc2ccccc2)o1,> 100,≥ 100,> 300,–,–,–
Nc1nnc(-c2ccccc2OCc2ccccc2)o1,85.2,63.2,> 300,–,–,–
Nc1nnc(-c2ccccc2OCc2ccc(F)cc2)o1,2.5,3.3,> 300,–,–,2.5
CSc1nnc(-c2ccccc2OCc2ccccc2)o1,91.2,> 100,> 300,–,–,–
